According to patent publication US20190060300A1, “Self-Emulsifying Compositions of CB2 Receptor Modulators” (priority 2016, published 2019):

Tests used:
CB2 receptor = CB2 receptor (Homo sapiens, UniProt P34972); settings: Chicca A. et al; cited from earlier work
[1] = according to its MSDS; cited from earlier work
[2] = oral and topical administration, Chaves 2008; cited from earlier work
[3] = Sköld et al. 2006; cited from earlier work
[4] = Dissolution of MH in the SEDDS vehicle of Example 1; assay type: physicochemical
Experimental: Preparation of MH in SEDDS vehicle. • 1. The SEDDS vehicle of the oral composition of Example 1 was warmed up separately to 42° C. for 13 min. In order to prepare about 5% (g/vol) MH solution, the vehicle (380 mg) was added to MH (22.8 mg) directly and vortexed for 60 sec to obtain the oral composition. • 2. The SEDDS vehicle of the oral composition of Example 1 was warmed up separately to 52° C. for 15 min. In order to prepare about 5% (g/vol) MH solution, the vehicle (380.18 mg) was added to MH (21.2 mg) directly and vortexed for 100 sec to obtain the oral composition. Then the solution was warmed up to 50° C. for 10 min. Then the solution was warmed up to 57° C. for 13 min and vortexed for 180 sec. • 3. The SEDDS vehicle of the oral composition of Example 1 was warmed up separately to 55° C. for 15 min. In order to prepare about 1% (g/vol) MH solution, the vehicle (396 mg) was added to MH (4 mg) directly and vortexed for 60 sec to obtain the oral composition. Then the solution was warmed up to 55° C. for 10 min and vortexed for 60 sec.

[5] = Dissolution of MH in oral formulations V-01, V-02, V-03; assay type: physicochemical
Experimental: The solution of 4-O-methylhonokiol (MH) was prepared in oral formulation according to Table 1 below.

[6] = test system: mouse model of schizophrenia (PCP); experiment: Forced-swimming test after oral BCP in SEDDS, PCP mouse model of schizophrenia; assay type: in vivo; settings: gavage twice a week for 3 weeks, adolescent mice
Experimental: (§1) The mouse model of schizophrenia was established.
(§2) Sterile double-distilled water (DDW) was warmed for […] in a pre-warmed thermobath (35-38° C.). The SEDDS vehicle of the oral composition of Example 1 was warmed up separately to 35-38° C. for 10 min. In order to prepare BCP (5 mg/ml) for a final dose of 10 mg/kg, BCP (5 mg) was added directly into the vehicle (1 ml) and vortexed for 1 min to obtain the oral composition. Then the warmed sterile DDW (4 ml) at 35-38° C. was added at a ratio of 1:5 oral composition: DDW dilution and the diluted composition was vortexed for 1 min. In order to prepare BCP for a final dose of 5 mg/kg, 500 μl of BCP at 5 mg/ml were diluted with 500 μl SEDDS vehicle (1:2 dilution). Then the warmed sterile DDW (4 ml) at 35-38° C. was added at a ratio of 1:5 oral composition. DDW dilution and the diluted composition was vortexed for 1 min.
(§3) BCP (5 mg/kg or 10 mg/kg in diluted self-emulsifying vehicle (Example 1)) was administered to adolescent mice (10 μl/g) by gavage twice a week (on Sunday and Wednesday) for 3 weeks (PND 43-62), a total of 6 injections. Control group and PCP-induced group received by gavage the oral formulation solution without the drug.
Training was conducted for 6 min a day before the test. […] On the test day, the total duration/frequency of immobility and climbing was counted every 2 minutes for 6 minutes. […]

[7] = test system: mouse model of schizophrenia (PCP); experiment: Open field test after oral BCP in SEDDS, PCP mouse model of schizophrenia; assay type: in vivo; settings: 5 mg/kg BCP in SEDDS oral formulation, gavage, adolescent mice
Experimental: as §1, §2
(§4) BCP (5 mg/kg or 10 mg/kg in diluted self-emulsifying vehicle (Example 1)) was administered to adolescent mice (10 μl/g) by gavage twice a week (on Sunday and Wednesday) for 3 weeks (PND 43-62), a total of 6 injections. […]
Each mouse was placed into the center of a clear open Plexiglas Chamber (40 cm*32 cm*30 cm) which its floor was divided to squares of 4 cm×5 cm. […] Ambulation behavior was manually counted for 8 min and data were collected in 2 min intervals.

[8] = test system: mouse model of schizophrenia (PCP); experiment: Social interaction test in a novel environment after oral BCP in SEDDS, PCP mouse model; assay type: in vivo; settings: 5 mg/kg BCP in SEDDS oral composition, gavage, adolescent mice
Experimental: as §1, §2, §4
Each mouse was placed in a novel cage together with a nonaggressive intruder mouse, of the same species, same sex and a similar age. The interaction between the two mice was recorded for 10 minutes with EthoVision software (Noldus). […]

[9] = Body weight of mice treated orally with BCP in SEDDS; assay type: in vivo; settings: 5 mg/kg BCP in SEDDS oral composition, gavage, adolescent mice
Experimental: as §3

[10] = test system: mouse model of schizophrenia (PCP); experiment: Forced-swimming test after oral BCP in canola oil, PCP mouse model of schizophrenia; assay type: in vivo, mice
Experimental: as §1
BCP was diluted in canola oil.
BCP (10 mg/kg diluted in canola oil) was administered to adolescent mice (PND 4362) by gavage twice a week (on Sunday and Wednesday) for 3 weeks, a total of 6 gavages. Control group and PCP-induced group received by gavage the oil vehicle.
Training was conducted for 6 min a day before the test. Each mouse was placed into a transparent glass cylinder filled with fresh water at 25° C. On the test day, the total dilation/frequency of immobility and climbing was counted every 2 minutes for 6 minutes. An increased immobility is an index of learning and habituation, therefore a positive behavioral adaptation with a stressful condition.

[11] = air exposed, after 5 weeks; cited from earlier work

Sequence of CB2 receptor (P34972 whole entry): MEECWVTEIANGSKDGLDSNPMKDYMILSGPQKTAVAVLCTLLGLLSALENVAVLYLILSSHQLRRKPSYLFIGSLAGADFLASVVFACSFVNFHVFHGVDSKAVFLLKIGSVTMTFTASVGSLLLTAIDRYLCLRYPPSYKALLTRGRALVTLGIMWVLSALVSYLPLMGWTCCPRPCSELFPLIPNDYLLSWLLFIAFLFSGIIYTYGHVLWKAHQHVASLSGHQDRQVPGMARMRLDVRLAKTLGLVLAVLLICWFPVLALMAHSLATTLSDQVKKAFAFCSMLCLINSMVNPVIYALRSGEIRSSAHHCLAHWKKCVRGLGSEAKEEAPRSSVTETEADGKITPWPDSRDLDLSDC

## C/C1=C\CC/C(C)=C/CC(C)(C)/C=C/C1 [alpha-humulene]
CB2 receptor
  CB2 receptor binding: inactivity
[1]
  irritancy: skin, eyes and respiratory irritant
[2]
  absorption: rapid onset and relatively good absorption

## C=C1CC[C@H]2O[C@]2(C)CC[C@@H]2[C@@H]1CC2(C)C [BCP oxide, Caryophyllene oxide]
CB2 receptor
  CB2 receptor binding: inactivity
[3]
  allergenicity: allergen

## C=CCc1ccc(O)c(-c2ccc(OC)c(CC=C)c2)c1 [MH, 4-O-methylhonokiol]
[4]; about 1% (g/vol) MH, solution warmed up to 55° C. for 10 min, vortexed 60 sec
  dissolution of MH in SEDDS vehicle: dissolved
[4]; about 1% (g/vol) MH, vehicle warmed to 55° C., vortexed 60 sec
  dissolution of MH in SEDDS vehicle: did not dissolve
[4]; about 5% (g/vol) MH, solution warmed up to 50° C. for 10 min
  dissolution of MH in SEDDS vehicle: did not dissolve
[4]; about 5% (g/vol) MH, solution warmed up to 57° C. for 13 min, vortexed 180 sec
  dissolution of MH in SEDDS vehicle: dissolved
[4]; about 5% (g/vol) MH, vehicle warmed to 42° C., vortexed 60 sec
  dissolution of MH in SEDDS vehicle: did not dissolve
[4]; about 5% (g/vol) MH, vehicle warmed to 52° C., vortexed 100 sec
  dissolution of MH in SEDDS vehicle: did not dissolve
[5]; in V-01
  dissolution of MH in oral formulation: dissolved
[5]; in V-02
  dissolution of MH in oral formulation: dissolved
[5]; in V-03
  dissolution of MH in oral formulation: dissolved

## trans-(1R,9S)-8-methylene4,11,11 trimethylbicyclo[7.2.0)]undec-4-ene [BCP]
[6]; 5 mg/kg BCP in SEDDS oral formulation
  effect of PCP in the forced-swim test: reversed the effect of PCP
[6]; 10 mg/kg BCP in SEDDS oral formulation
  effect of PCP in the forced-swim test: reversed the effect of PCP
[7]
  effect of PCP on activity in the open field test: reversed the effect of PCP
[8]
  effect of PCP in the social interaction test: reversed the effect of PCP
[9]
  body weight: did not affect their body weight
[10]; 10 mg/kg BCP in oil composition (canola oil), gavage twice a week for 3 weeks
  effect of 5 mg/kg PCP on the frequency of immobility in the forced swim test: did not reverse the effect
[10]; BCP in oil, gavage
  reversing the frequency of climbing in the forced-swim test: ineffective
[11]
  original compound consumed by oxidation: ~50%
